For series [1], the system named is glutathione S-transferase (GST). Kind of series: Se-supplementing effect in Se-deficient mice: GST activity in liver. The class given is in vivo. The note with it: relative to control 1.00 (control 4071.4 unit/mg protein), mean±SD. The procedure: (§1) It has been reported that high doses of sodium selenite can reduce the symptom of severely ill patient and enhance the therapeutic efficacy of chemotherapy agents for cancers. It remains unknown whether there are differences regarding the Se-supplementing effect between sodium selenosulfate and sodium selenite at pharmacologic doses. In this example, Se-deficient mice were intraperitoneally injected with sodium selenite and sodium selenosulfate at doses of 0.5 and 1 mg Se/kg for a week. The enzyme activity and selenium were measured to compare the Se-supplementing effect between the two selenium compounds.
(§2) Animals: Se-deficient male Kunming mice (body weight: 20-23 g) were purchased from the animal center of Anhui Medical University. Drugs Administration: 35 mice were randomly divided into 5 groups with 7 mice in each group. The mice in the control group were injected with normal saline, and those in other groups were injected respectively with different doses of sodium selenite and sodium selenosulfate (0.5 and 1 mg Se/kg) for 7 consecutive days. Biochemical parameters: 24 hours after the last Se administration, blood was sampled from ophthalmic veins to obtain serum by centrifugation, and then the Se form and glutathione peroxidase (GPx) activity therein were determined. Meanwhile, liver and kidney were excised and stored at −30° C., and a part of them were used to determine Se. A part of livers and kidneys were homogenized and centrifuged to obtain supernatant, and then GPx activity and glutathione S-transferase (GST) activity in livers were determined. Statistical analysis: Data were expressed as mean±SD. The differences between the groups were examined using ANOVA. A p value less than 0.05 was considered statistically significant.

The test system of series [2] is glutathione peroxidase (GPx). Kind of series: Se-supplementing effect in Se-deficient mice: GPx activity in serum, liver and kidney. The class given is in vivo. The note with it: mean±SD; for Liver GPx: relative to control 1.00 (control 88.5 unit/mg protein); for Kidney GPx: relative to control 1.00 (control 142.8 unit/mg protein); for Serum GPx: relative to control 1.00 (control 525.5 unit/mL serum). The procedure: as §1, §2

Series [3] deals with Se-sufficient male Kunming mice. The series is described as follows: Toxicity to normal tissues in Se-sufficient mice, i.p. once daily for 14 days. The series is classed as in vivo. The following applies: for mortality: FIG. 3; for hepatic tissue slices with hydropic or fatty degeneration / serum ALT and AST activity (hepatotoxicity): 2 mg Se/kg, 14 days; for hepatic tissue slices with hydropic or fatty degeneration: HE stain, selenite moderate (FIG. 5), selenosulfate slight (FIG. 6); for serum ALT and AST activity (hepatotoxicity): FIG. 4; for suppression of the growth of the mice (body weight): 2 and 3 mg Se/kg, same Se levels compared, FIG. 2. The procedure:
Animals: Se-sufficient male Kunming mice (body weight: 23±1 g) were purchased from the Shanghai Laboratory Animal Center, Chinese Academy of Sciences. Drugs Administration: 50 mice were randomly divided into 5 groups with 10 mice in each group. The mice in the control group were injected intraperitoneally with normal saline, and the other groups were injected with sodium selenite (2 groups) and sodium selenosulfate (2 groups) respectively at 2 and 3 mg Se/kg once daily for 14 consecutive days. The mice in low dosage groups were sacrificed 24 hours after the last Se administration. Animal status: The body weight and dead status of the mice were recorded every day. Biochemical parameters: Blood was sampled from ophthalmic veins for determining serum ALT activity and AST activity. Pathology: Liver was excised for the determination. The slice was dyed by using HE. Statistical analysis: Data were expressed as mean±SD. The differences between the groups were examined using ANOVA. A p value less than 0.05 was considered statistically significant.

Series [4] can be described thus: Se-supplementing effect in Se-deficient mice: Se level in serum, liver and kidney. The series is classed as in vivo. The following applies: mean±SD; for Serum Se: relative to control 1.00 (control 0.07 μg/mL serum); for Liver Se: relative to control 1.00 (control 0.15 μg/g liver); for Kidney Se: relative to control 1.00 (control 0.44 μg/g kidney). The procedure:
as §1, §2

Series [5] has as its system Human hepatoma cells (HepG2). The series is described as follows: Cell proliferation assay (MTT, day 0-6). The following applies: 12.5 μM Se, day 0-6, MTT; FIG. 7B. The series is classed as cell-based. The procedure:
(§3) Cell culture: Human hepatoma cells (HepG2) and human colorectal cancer cells (CaCo2) were cultivated at 37° C. under 5% CO2 by using EMEM cell culture media containing 10% Fetal Bovine serum. Cell killing assay: the tumor cells were added into a 96-well plate with a density of 5000 cells/well for 24 hours, and then the culture media were changed to those with different Se concentrations. At 72 hours, the cell numbers were determined by MTT protocol. Each treatment was conducted in 3 parallels, and the data were expressed by percent relative to cell numbers when no Se was added. Cell proliferation assay: HepG2 or CaCo2 cells were added into a 96-well plate with a density of 1000 cells/well for 24 hours, and then the culture media were changed to those with 12.5 μM Se. The day was defined as day 0. The cell numbers were determined by MTT protocol on day 0, 2, 4 and 6, respectively. Each treatment was conducted with 8 parallels, and the data were expressed with percent relative to the cell numbers on day 0. MTT assay: Each well was added with 20 μL MTT (5 mg/mL) 4 hours prior to the end of culture. After the culture was ended, the supernatant was discarded, and the formazan particles were dissolved in HCl-isopropanol (10 μL/well). The readings were recorded at 595 nm on a microplate reader.

Series [6] relates to Human hepatoma cells (HepG2). The series is described as follows: Cell killing assay (MTT, 72 hours). The series is classed as cell-based. The following applies: FIG. 7A. The procedure: as §3
For the next series, the system named is hepatoma H22 cell. Kind of series: Treatment of mice bearing H22 ascites with cisplatin with or without sodium selenosulfate. The note with it: for Survival time of dead mice: mean±SD. The series is classed as in vivo. The procedure: Animals: Se-sufficient male Kunming mice (body weight: 20-23 g) were purchased from Shanghai Laboratory Animal Center, Chinese Academy of Sciences. Drugs Administration: 48 mice were divided randomly into 6 groups with 8 mice in each group. Each mouse was inoculated intraperitoneally with hepatoma H22 cell suspension (20×10^6 cells). The groups were classified into 3 cisplatin groups, 2 cisplatin plus Se-supplementing groups (the groups administrated with 8 and 10 mg/kg doses of cisplatin were treated with 0.6 and 0.75 mg Se/kg doses of sodium selenosulfate, respectively) and 1 control group in terms of the administration doses (5, 8 and 10 mg/kg) of cisplatin. The experiments were carried out with one week as a cycle. The experiments with cisplatin doses of 5 and 8 mg/kg were carried out for total 4 cycles, and those with cisplatin dose of 10 mg/kg were performed for total 3 cycles. From the first day of each cycle, the mice in cisplatin groups was intraperitoneally injected with the corresponding concentrations of cisplatin, and the mice in cisplatin plus Se-supplementing groups were injected intraperitoneally with the corresponding sodium selenosulfate doses of 0.6 and 0.75 mg Se/kg respectively 4 hours before the intraperitoneal injection of cisplatin. The treatment was performed for 5 consecutive days. The first cisplatin chemotherapy started at 48 hours after the inoculation of tumor cells. The animal status was recorded and the development of malignant ascites was observed. Statistical analysis: Data were expressed as mean±SD. The differences between the groups were examined using ANOVA. A p value less than 0.05 was considered statistically significant.

Setting [7] is: 2 mg Se/kg i.p. once daily 14 days.
[8] abbreviates: 3 mg Se/kg i.p. once daily 14 days.
Where [9] appears, read: cisplatin 5 mg/kg i.p., 4 cycles.
Where [10] appears, read: cisplatin 8 mg/kg i.p., 4 cycles.
Where [11] appears, read: cisplatin 10 mg/kg i.p., 3 cycles.

Structures are written as SMILES.

Broadly, the mortality is the share of the test organisms that died. The low end stands for more survivors, the high end for fewer survivors. In the case of `O=[Se](O)O` [Sodium selenite, sodium selenite], the “Liver GST” value in series [1] (0.5 mg/kg i.p. 7 days) came to 1.64 ± 0.23. Besides, in series [1] (1.0 mg/kg i.p. 7 days), the “Liver GST” value was 2.44 ± 0.14. In addition, in series [2] (0.5 mg/kg i.p. 7 days), the “Liver GPx” value was 19.8 ± 0.08, the “Kidney GPx” value was 8.74 ± 0.14 and the “Serum GPx” value was found to be 2.97 ± 0.37. In addition, in series [2] (1.0 mg/kg i.p. 7 days), the “Liver GPx” value is listed as 22.2 ± 0.10, the “Kidney GPx” value stood at 10.2 ± 0.14 and the “Serum GPx” value is reported as 4.18 ± 0.26. Also, the mortality in series [3] (setting [7]) stood at 20%. In series [3], the “hepatic tissue slices with hydropic or fatty degeneration” value is given as “up to 80%”; the “serum ALT and AST activity (hepatotoxicity)” value is “made ALT and AST increased significantly”; the “suppression of the growth of the mice (body weight)” value is “significantly stronger than that of sodium selenosulfate”. In series [3] (setting [8]), this molecule came in with a mortality of 90%.

With `O=S(=O)([O-])[Se-].[Na+].[Na+]` [Sodium selenosulfate, sodium selenosulfate], in series [4] (0.5 mg/kg i.p. 7 days), the “Serum Se” value stood at 5.69 ± 0.13, the “Liver Se” value is reported as 11.2 ± 0.09 and the “Kidney Se” value was found to be 2.85 ± 0.10. Besides, in series [4] (1.0 mg/kg i.p. 7 days), the “Serum Se” value came to 5.24 ± 0.39, the “Liver Se” value is reported as 15.2 ± 0.09 and the “Kidney Se” value is listed as 3.90 ± 0.14. Besides, in series [5], the “suppression of proliferation of HepG2 cells” value is reported as “fully suppressed the proliferation of HepG2 cells”. Moreover, the “killing effect on HepG2 cells” value in series [6] is “dose-dependent profile on killing HepG2 cells at levels of 6-18 μM”. Moreover, the “Liver GST” value in series [1] (0.5 mg/kg i.p. 7 days) is 1.47 ± 0.29. Further, the “Liver GST” value in series [1] (1.0 mg/kg i.p. 7 days) is on record as 2.69 ± 0.23. In series [2] (0.5 mg/kg i.p. 7 days), the “Liver GPx” value worked out at 18.8 ± 0.19, the “Kidney GPx” value came to 7.74 ± 0.19 and the “Serum GPx” value amounted to 3.10 ± 0.25. In addition, in series [2] (1.0 mg/kg i.p. 7 days), the “Liver GPx” value is 22.2 ± 0.16, the “Kidney GPx” value was found to be 9.09 ± 0.18 and the “Serum GPx” value came to 4.41 ± 0.24. In addition, in series [3] (setting [7]), the mortality result is “all the mice treated with sodium selenosulfate survived”. Besides, in series [3], the “hepatic tissue slices with hydropic or fatty degeneration” value stood at 20%; the “serum ALT and AST activity (hepatotoxicity)” value is “such phenomenon was not found”; the “suppression of the growth of the mice (body weight)” value is recorded as “could suppress the growth of the mice as compared with the control”. This molecule gave a mortality in series [3] (setting [8]) of 20%.

In the case of `N.N.[Cl][Pt][Cl]` [Cisplatin, cisplatin], the “suppression of the development of malignant ascites” value in the series with hepatoma H22 cell (cisplatin 5 mg/kg) is given as “could not suppress the rapid development of malignant ascites”; in the series with hepatoma H22 cell (cisplatin 8 and 10 mg/kg), “could efficiently suppress the development of malignant ascites”. The Cure rate in the series on hepatoma H22 cell (setting [9]) amounted to 0%; with hepatoma H22 cell (setting [10]), 0%; with hepatoma H22 cell (setting [11]) it was 25%. For the same molecule, the Death rate in the series on hepatoma H22 cell (setting [9]) is given as 100%; with hepatoma H22 cell (setting [10]), 100%; with hepatoma H22 cell (setting [11]), 75%. The figures for the “Survival time of dead mice” value with hepatoma H22 cell (setting [9]), in the series on hepatoma H22 cell (setting [10]) and in the series on hepatoma H22 cell (setting [11]) were 20 ± 7 days, 31 ± 12 days and 21 ± 9 days, respectively.
